Test results as given in patent publication US10258602B2 (Ocera Therapeutics, Inc., priority 2007, dated 2019).

Assays:
human plasma = details: reference controls; cited from earlier work
hGHS-R1a = biological target: T1, hGHS-R1a (Homo sapiens, UniProt Q92847); experiment: Activation-desensitization profile, Ca2+ flux in HEK293 cells stably expressing hGHS-R1a; format: cell-based; details: higher positive = less desensitization potential
T1 construct: expressed in transfected cells
Procedure: M. Activation-Desensitization Profile
It is well-known that agonists of G-protein coupled receptors can induce desensitization or tachyphylaxis, thereby limiting the potential of agents acting at the receptor as therapeutics for chronic use.
• 1. […] Agonist-induced Ca^+2 fluxes were measured after loading with Ca^+2 indicator Fluo-4-AM. • 3. […] Results

T1 sequence (Q92847 whole entry): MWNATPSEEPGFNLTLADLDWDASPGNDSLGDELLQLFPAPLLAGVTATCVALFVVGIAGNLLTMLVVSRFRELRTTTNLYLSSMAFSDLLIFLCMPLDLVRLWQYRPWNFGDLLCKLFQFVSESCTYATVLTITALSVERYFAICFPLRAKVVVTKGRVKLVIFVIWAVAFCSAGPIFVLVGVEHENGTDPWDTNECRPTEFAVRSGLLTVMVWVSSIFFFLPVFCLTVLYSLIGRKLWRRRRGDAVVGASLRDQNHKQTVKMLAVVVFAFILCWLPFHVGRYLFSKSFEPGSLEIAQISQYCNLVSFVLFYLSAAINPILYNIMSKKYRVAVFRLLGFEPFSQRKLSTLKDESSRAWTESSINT

Row | Compound | known plasma protein binding values (human plasma) [%] | Δ(activity-desensitization) (pEC50 − pDC50) (hGHS-R1a)
1 | CC(=O)CC(c1ccccc1)c1c(O)c2ccccc2oc1=O (stereo not drawn) [warfarin] | ~98 | 
2 | CN1N=C2CCN(C(=O)[C@@H](COCc3ccccc3)NC(=O)C(C)(C)N)C[C@@]2(Cc2ccccc2)C1=O [Capromorelin, capromorelin, reference compound] |  | 0.91
3 | GHRP-6 [reference compound] |  | 0.60
